Reference: US9462805B2, “Herbicide-resistant proteins, encoding genes, and uses thereof” (Beijing Dabeinong Technology Group Co., Ltd., priority 2012, dated 2016)

Experiments:
[1] = tested on: wild-type Arabidopsis plants; test: Herbicide resistance effect test of wild-type Arabidopsis plants; type: in vivo, Arabidopsis thaliana; conditions: number of plants, genotype Wild, 560 g ae/ha sprayed; for Moderately resistant: curly rosette leaves 7 days after spraying; for Non-resistant: dead 14 days after spraying; for Highly resistant: growth consistent with blank solvent 7 days after spraying; for Lowly resistant: incapable of bolting 14 days after spraying
From the text: 24DT02 gene was used to transform Arabidopsis for the first time. At first, T1 transformants were selected from the background of un-transformed seeds, using glufosinate-ammonium selection scheme. About 40000 T1 seeds were screened among which 195 strains of T1 generation positive transformants (PAT gene) were identified, i.e. the transformation efficiency was about 0.5%. Herbicide resistance effect tests to 2,4-D dimethyl ammonium salt and agroxone of Arabidopsis T1 plants transformed with 24DT02 nucleotide sequence, substituted 24DT02 nucleotide sequence, truncated 24DT02 nucleotide sequence, added 24DT02 nucleotide sequence, control nucleotide sequence respectively and wild-type Arabidopsis plants were performed after 18 days of planting. Arabidopsis T1 plants transformed with 24DT02 nucleotide sequence, substituted 24DT02 nucleotide sequence, truncated 24DT02 nucleotide sequence, added 24DT02 nucleotide sequence and control nucleotide sequence respectively and wild-type Arabidopsis plants were sprayed with 2,4-D dimethyl ammonium salt (560 g ae/ha, 1-fold concentration in field), agroxone (560 g ae/ha, 1-fold concentration in field) and blank solvent (water). Resistance conditions of the plants were counted 7 days and 14 days after spraying. Plants with growth conditions consistent with blank solvent (water) 7 days after spaying were classified as highly resistant plants; Plants with curly rosette leaves 7 days after spaying were classified as moderately resistant plants; Plants incapable of bolting 14 days after spaying were classified as low-resistant plants and the dead plants 14 days after spaying were classified as non-resistant plants. Because each Arabidopsis T1 plant was an independent transformation event, significant differences of individual T1 responses were expected under a given dose.

[2] = tested on: corn plants transfected with 24DT02 added nucleotide sequence; test: Herbicide-resistance effect test of transgenic corn plants (added 24DT02; strains S8, S9); type: in vivo, maize; conditions: 8960 g ae/ha sprayed, 21 days after spraying; for Abnormal development of prop roots / Normal development of prop roots: number of plants
Procedure: (§1) Herbicide resistance effects tests to 2,4-D dimethyl ammonium salt and agroxone of maize plants containing 24DT02 nucleotide sequence, 24DT02 substituted nucleotide sequence, 24DT02 truncated nucleotide sequence, 24DT02 added nucleotide sequence, control nucleotide sequence respectively and wild type maize plants (stages V3-V4) were performed respectively.
(§2) Maize plants containing 24DT02 nucleotide sequence, 24DT02 substituted nucleotide sequence, 24DT02 truncated nucleotide sequence, 24DT02 added nucleotide sequence, control nucleotide sequence respectively and wild type maize plants were taken and spayed with 2,4-D dimethyl ammonium salt (8960 g ae/ha, 16-folds concentration in field), agroxone (8960 g ae/ha, 16-folds concentration in field) and blank solvent (water) respectively. Prop root development was counted 21 days after spaying. Three strains (S1, S2, and S3) of corn plants transfected with 24DT02 nucleotide sequence, two strains (S4 and S5) of corn plants transfected with 24DT02 substituted nucleotide sequence, two strains (S6 and S7) of corn plants transfected with 24DT02 truncated nucleotide sequence, two strains (S8 and S9) of corn plants transfected with 24DT02 added nucleotide sequence, two strains (S10 and S11) of corn plants transfected with control nucleotide sequence and 1 strain of wild type (CK) corn were selected and 10-15 plants from each stain were tested.

[3] = tested on: corn plants transfected with control nucleotide sequence; test: Herbicide-resistance effect test of corn plants (control sequence; strains S10, S11); type: in vivo, maize; conditions: 8960 g ae/ha sprayed, 21 days after spraying; for Abnormal development of prop roots / Normal development of prop roots: number of plants
Procedure: as §1, §2

Arabidopsis = test: Effective dose distinguishing sensitive from resistant Arabidopsis; type: in vivo
[4] = corn strain S10 (control sequence)
[5] = corn strain S11 (control sequence)

CNC.O=C(O)COc1ccc(Cl)cc1Cl [2,4-D dimethyl ammonium salt]
Moderately resistant [1]: 0
Non-resistant [1]: 20
Highly resistant [1]: 0
Lowly resistant [1]: 0
Ratio of the normally developed prop roots ([2]; corn strain S8 (added 24DT02)): 80.00%
Ratio of the normally developed prop roots ([2]; corn strain S9 (added 24DT02)): 78.57%
Abnormal development of prop roots ([2]; corn strain S8 (added 24DT02)): 3
Normal development of prop roots ([2]; corn strain S8 (added 24DT02)): 12
Abnormal development of prop roots ([2]; corn strain S9 (added 24DT02)): 3
Normal development of prop roots ([2]; corn strain S9 (added 24DT02)): 11
Ratio of the normally developed prop roots [3, 4]: 0%
Ratio of the normally developed prop roots [3, 5]: 0%
Abnormal development of prop roots [3, 4]: 10
Normal development of prop roots [3, 4]: 0
Abnormal development of prop roots [3, 5]: 11
Normal development of prop roots [3, 5]: 0

Cc1cc(Cl)ccc1OCC(=O)O [agroxone]
Moderately resistant [1]: 0
Non-resistant [1]: 16
Highly resistant [1]: 0
Lowly resistant [1]: 0
Ratio of the normally developed prop roots ([2]; corn strain S8 (added 24DT02)): 86.67%
Ratio of the normally developed prop roots ([2]; corn strain S9 (added 24DT02)): 84.62%
Abnormal development of prop roots ([2]; corn strain S8 (added 24DT02)): 2
Normal development of prop roots ([2]; corn strain S8 (added 24DT02)): 13
Abnormal development of prop roots ([2]; corn strain S9 (added 24DT02)): 2
Normal development of prop roots ([2]; corn strain S9 (added 24DT02)): 11
Ratio of the normally developed prop roots [3, 4]: 0%
Ratio of the normally developed prop roots [3, 5]: 0%
Abnormal development of prop roots [3, 4]: 10
Normal development of prop roots [3, 4]: 0
Abnormal development of prop roots [3, 5]: 10
Normal development of prop roots [3, 5]: 0
effective dose to distinguish the sensitive plants from plants with average resistance (Arabidopsis): 50 g ae/ha
